Laboratory results: patent US12390436B1, “Mutations in mitochondrial enzyme GPT2 cause metabolic dysfunction and neurological disease with developmental and progressive features” (priority 2020, dated 2025)
Entries after “also recorded” stand apart in the source; their conditions may differ.

Assays:
germline Gpt2-null mice = assay: Dietary supplementation of germline Gpt2-null mice: survival and phenotype; type: in vivo, mouse
From the text: Vertebrate animal assays. The assays use a wild-type mouse line and a genetically modified mouse line (i.e., germline Gpt2-null line). A person having ordinary skill in the biomedical art can perform these assays following the procedures in protocol 18-11-0002, approved by the Brown University Institutional Animal Care and Use Committee (IACUC). All animals used in assays described in this specification were housed at the Brown University Animal Care Facility.
Rescue of motor phenotype in vivo with dietary modifications. Synthesis of alanine in the brain is prominently deficient in Gpt2-null animals. An overriding hypothesis (OH1) is that, in the absence of GPT2, alanine changes from a non-essential amino acid to an essential amino acid in neurons, and neuronal alanine deficiency impedes protein synthesis and neuronal growth. The inventors determined there is an anaplerotic defect in Gpt2-null brains (OH2). The inventors are attempting to rescue animal survival, weight gain, and health of the motor system by alanine supplementation, anaplerotic supplementation, and the combination. […] The inventors are testing the extent to which other phenotypic aspects, particularly related to motor defects, are ameliorated by alanine supplementation over time with and without anaplerotic supplementation. The inventors also investigate the requirement for exogenous dietary alanine by removing alanine from the diet of Gpt2-null animals.
Alanine supplementation: Littermate germline Gpt2-null and wild-type animals are fed either high-alanine diet (5% by weight), alanine-deprived diet (0%), or standard chow (1.2%). The formulations generated by Envigo are fed to breeding pairs, pregnant mothers, and pups, based on prior studies by Battaglia & Regnault, Placenta, 22, 145-161 (2001). Food is provided ad libitum. Therefore, newborn Gpt2-mutant pups are receiving the diet throughout gestation and from birth onward. […] The inventors measured alanine in peripheral blood and brain tissue by metabolomics. […]

[1] = in vivo; cited from earlier work
[2] = preclinical studies (Willis et al. 2010; Hadera et al. 2014); cited from earlier work
[3] = clinical trials, e.g., NCT01379625 and NCT01993186 (Vockley et al. 2017); cited from earlier work

| Compound | effect on survival of germline Gpt2-null animals (in words) (germline Gpt2-null mice; alanine supplementation / high-alanine diet, preliminary work) | effect on phenotype in the mouse model of Gpt2 disease (in words) (germline Gpt2-null mice; dietary supplementation in development, preliminary data) | survival of germline Gpt2-null pups beyond weaning (germline Gpt2-null mice; supplemental dietary alanine to pregnant and lactating mothers and pups, freely feeding, vs. 0% on standard chow, p<0.0001, log-rank (Mantel-Cox) test) | crosses the blood-brain barrier [1] | antiseizure effects [2] | tolerability [3] |
| --- | --- | --- | --- | --- | --- | --- |
| C[C@H](N)C(=O)O [alanine] | impact; also recorded: improves the survival | benefited; also recorded: partially ameliorates the phenotype | 36.7% | crosses the blood-brain barrier |  |  |
| CCCCCCC(=O)OCC(COC(=O)CCCCCC)OC(=O)CCCCCC [triheptanoin, reference compound] |  |  |  |  | has antiseizure effects | well tolerated |
